Marks after values point to notes of the source that are not given here.
How the values were obtained:
[1] = tested on: acetaminophen induced liver injury; test: Acetaminophen induced liver injury in mice; type: in vivo; settings: 5.85 mg/kg gastric infusion, 10 days
Procedure: Ethyl 11-deoxy-18α-glycyrrhetinate: provided by traditional Chinese medicine laboratory, R&D center of Jiangsu Chia Tai Tianqing Pharmaceutical Co., Ltd. Bifendate pills: produced by Beijing Union Pharmaceutical factory. Daily dosage of human is 45 mg, used as the positive control medicine. Acetaminophen: produced by Jinzhou biochemical pharmaceutical factory. All medicines were prepared to desired concentrations with physiological saline according to the requirement of experiment. AST, ALT Kit: product of Nanjing Jiancheng bioengineering research institute.
60 mice were randomly divided into 6 groups: the normal control group, Bifendate group (positive medicine group), model control group, various doses of ethyl 11-deoxy-18α-glycyrrhetinate groups (240, 120, 60 mg/kg). After the animals were adaptively fed for 3 days, animals in each group were administered the medicines by gastric infusion for 10 days (one time/day). Animals in the normal control group and model group were administered 0.2 ml/mouse of physiological saline. 6 hours after the last administration, animals in each group, except the animals in normal control group, were intraperitoneally injected 400 mg kg-1 acetaminophen. After 12 hours, blood was taken by orbital bleeding. Activities of alanine aminotransferase (ALT), aspartate aminotransferase (AST) were measured. And T test of groups was performed, see table 7;

[2] = tested on: BCG + LPS induced liver injury; test: BCG+LPS induced liver injury in mice; type: in vivo, Kunming mice; settings: 5.85 mg/kg gastric infusion, 7 days
[3] = tested on: TAA induced acute liver injury; test: TAA induced acute liver injury mouse model; type: in vivo, ICR male mice; design: Average grade of hepatocyte necrosis: scale not given here; settings: 240 mg/kg IG
Procedure: 50 ICR male mice were randomly divided into 5 groups of 10 mice in each group: the model group, diammonium glycyrrhizinate group (240 mg/kg), high dose of ethyl 11-deoxy-18α-glycyrrhetinate group (240 mg/kg), middle dose of ethyl 11-deoxy-18α-glycyrrhetinate group (120 mg/kg), and low dose of ethyl 11-deoxy-18α-glycyrrhetinate group (60 mg/kg). The mice in model group were administered equal amount of 0.5% CMC-Na by IG.

[4] = tested on: D-Galn induced acute liver injury; test: D-Galn induced acute liver injury mouse model; type: in vivo, ICR male mice; settings: Table 2 experiment, 7 days
Procedure: 1. Comparison of therapeutic effects of ethyl 11-deoxy-18α-glycyrrhetinate and compound glycyrrhizin injection on ICR male mouse models of the D-Galn induced acute liver injury
Methods: 60 ICR male mice were randomly divided into 6 groups of 10 mice in each group: the model group, compound glycyrrhizin injection group (60 mg/kg), compound glycyrrhizin gastric infusion group (240 mg /kg), high dose of ethyl 11-deoxy-18α-glycyrrhetinate group (240 mg/kg), middle dose of ethyl 11-deoxy-18α-glycyrrhetinate group (120 mg/kg), low dose of ethyl 11-deoxy-18α-glycyrrhetinate group (60 mg/kg). […] The mice in model group were administered equal amount of 0.5% CMC-Na by gastric infusion.

COC(=O)c1cc(OC)c2c(c1-c1c(C(=O)OC)cc(OC)c3c1OCO3)OCO2 [Bifendate, reference compound]
ALT [1]: 134.6 ± 12.9 U/L
AST [1]: 162.3 ± 31.7 U/L
ALT [2]: 110.5 ± 11.9 U/L
AST [2]: 152.3 ± 41.6 U/L

CC1(C)[C@@H](O[C@H]2O[C@H](C(=O)O)[C@@H](O)[C@H](O)[C@H]2O[C@@H]2O[C@H](C(=O)O)[C@@H](O)[C@H](O)[C@H]2O)CC[C@]2(C)[C@H]3C(=O)C=C4[C@@H]5C[C@@](C)(C(=O)O)CC[C@]5(C)CC[C@@]4(C)[C@]3(C)CC[C@@H]12.N.N [Diammonium glycyrrhizinate, diammonium glycyrrhizinate, reference compound]
ALT [3]: 1568 ± 721 U/ml
ALT Inhibition % [3]: 31%
AST [3]: 1039 ± 623 U/ml
AST Inhibition % [3]: 40%
Average grade of hepatocyte necrosis [3]: 1.3**
Grade of hepatocyte necrosis 0 (number of mice) ([3]; N=10): 0
Grade of hepatocyte necrosis 1 (number of mice) ([3]; N=10): 7
Grade of hepatocyte necrosis 2 (number of mice) ([3]; N=10): 3
Grade of hepatocyte necrosis 3 (number of mice) ([3]; N=10): 0
Grade of hepatocyte necrosis 4 (number of mice) ([3]; N=10): 0
ALT ([4]; 60 mg/kg IP): 383 ± 393 U/ml
ALT Inhibition % ([4]; 60 mg/kg IP): 80%
AST ([4]; 60 mg/kg IP): 308 ± 389 U/ml
AST Inhibition % ([4]; 60 mg/kg IP): 73%
ALT ([4]; 240 mg/kg IG): 993 ± 479 U/ml
ALT Inhibition % ([4]; 240 mg/kg IG): 49%
AST ([4]; 240 mg/kg IG): 566 ± 291 U/ml
AST Inhibition % ([4]; 240 mg/kg IG): 50%

Source: patent publication US20120172438A1, “GLYCYRRHETINIC ACID ESTER DERIVATIVE SYNTHESIS METHOD AND DEOXOGLYCYRRHETINIC ACID ESTER COMPOUND” (priority 2009, published 2012)
